This is an account of results in patent publication US20230028658A1, “EXPANDED DOSAGE REGIMENS FOR INTEGRIN INHIBITORS” (Pliant Therapeutics, Inc., priority 2021, published 2023).

One assay has as its system COL1A1 expression. The assay is described as follows: PCLS from IPF lung tissue, seven days, COL1A1 expression. Format: cell-based, human. As to conditions: PCLS from 5-7 IPF lung tissue samples, Compound 5 200 nM, nintedanib 75 nM, pirfenidone 50 μm, FIG. 6D. As to the method: PCLS from 5-7 idopathic pulmonary fibrosis (IPF) lung tissue samples were cultured for seven days with one of: DMSO; Compound 5 at 200 nM; nintedanib at 75 nM; pirfenidone at 50 μm; a combination of Compound 5 at 200 nM and nintedanib at 75 nM; a combination of Compound 5 at 200 nM and pirfenidone at 50 μm; or an Alk5 inhibitor at 1 μm. […] FIG. 6D is a bar graph showing relative expression of COL1A1 in precision cut lung slices (PCLS) from idopathic pulmonary fibrosis (IPF) lung tissue upon exposure to Compound 5, clinical standard of care compounds nintedanib (Nin) and pirfenidone (Pirf), and an ALK5 inhibitor, all versus DMSO control.
PCLS from a single IPF lung tissue sample were cultured for seven days with Compound 5 at concentrations of 200 pM, 2 nM, 60 nM, 200 nM, and 1 μM, along with 0.1% DMSO control and an Alk5 inhibitor at 1 μM. […] COL1A1 expression is also graphed for the PCLS in the presence of 0.1% DMSO control, and an Alk5 inhibitor at 1 μM.

Assay [1] deals with Type I Collagen gene Col1a1. The assay is described as follows: Col1a1 expression in lung slices versus DMSO control slices (FIG. 5A, 5B, 6A, 6C). In kind it is cell-based. As to conditions: FIG. 6A; compared to the DMSO vehicle control slices.
Assay [2] deals with lung Col1a1 expression. The assay is described as follows: Precision cut lung slices, chronic bleomycin, comparison with nintedanib and pirfenidone (Example B10). Format: cell-based, Mice (C57BL/6). Conditions: chronic bleomycin PCLS, 7 days culture, vs DMSO vehicle; FIG. 6A. The method, then:
(§1) Mice (C57BL/6) were administered 3 U/kg of bleomycin (Teva Pharmaceuticals; North Wales, Pa.) on Day 0 and 1 U/kg of bleomycin on days 14, 28, 42 and 56 via oropharyngeal aspiration while under anesthesia. At day 70, 14 days following the final bleomycin insult, precision cut lung slices were obtained. Following euthanization, 2% low gelling temp agarose was injected into the mouse lungs via the trachea. […] The lobes were then subjected to precision slicing to obtain samples for culture using a microtome (Compresstome VF-300-0Z, Precisionary; Greenville, N.C.). Individual slices were distributed in a multiwell culture plate and cultured for 7 days under control (DMSO) and test compound conditions. The viability of the slices over the course of culturing was confirmed by WST-1 assay of mitochondrial activity.
During the culture period, slices in the control group were treated with DMSO and slices in the test group were treated with a DMSO solution of one of: compound 5; nintedanib; pirfenidone; a combination of nintedanib and compound 5; a combination of pirfenidone and compound 5; or the small molecule ALK5 inhibitor. Compound 5 was […] effective to equal or exceed its respective IC50 values at αvβ6 and αvβ1. […] Nintendanib and pirfenidone were analyzed at concentrations 10× their reported therapeutic concentrations.

In assay [3] the test system is Type I Collagen gene Col1a1 expression. The assay is described as follows: Precision cut lung slices of mice under acute bleomycin exposure, Col1a1 expression. In kind it is cell-based, Mice (C57BL/6). As to conditions: acute bleomycin PCLS, 3 days culture, normalized to DMSO; FIG. 5A. As to the method: Mice (C57BL/6) were administered 3 U/kg of bleomycin (Teva Pharmaceuticals; North Wales, Pa.) on day 0 via oropharyngeal aspiration while under anesthesia. On day 14, precision cut lung slices were obtained. Following euthanization, 2% low gelling temp agarose was injected into the mouse lungs via the trachea. […] The lobes were then subjected to precision slicing to obtain samples for culture using a microtome (Compresstome VF-300-0Z, Precisionary; Greenville, N.C.). Individual slices were distributed in a multiwell culture plate and cultured for 3 days under control (DMSO) and test compound conditions.

The target of assay [4] is recombinant human integrin αvβ6 (Homo sapiens, UniProt P06756+P18564). The assay is described as follows: Solid phase integrin αvβ6 binding assay. As to conditions: read-out: αvβ6 Inhibition IC50 (nM) - range. As to the method:
Microplates were coated with recombinant human integrin αvβ6 (2 μg/mL) in PBS (100 μL/well 25° C., overnight). The coating solution was removed, washed with wash buffer (0.05% Tween 20; 0.5 mM MnCl2; in 1×TBS). The plate was blocked with 200 μL/well of Block Buffer (1% BSA; 5% sucrose; 0.5 mM MnCl2; in 1×TBS) at 37° C. for 2 h. Dilutions of testing compounds and recombinant TGFβ1 LAP (0.67 μg/mL) in binding buffer (0.05% BSA; 2.5% sucrose; 0.5 mM MnCl2; in 1×TBS) were added. The plate was incubated for 2 hours at 25° C., washed, and incubated for 1 hour with Biotin-Anti-hLAP. Bound antibody was detected by peroxidase-conjugated streptavidin. The IC50 values for testing compounds were calculated by a four-parameter logistic regression.
The compounds tested were compound samples prepared according to procedures described in the Synthetic Examples section, with the stereochemical purity as indicated in the Examples.

Assay [5] has as its system lung Col1a1 expression. The assay is described as follows: Precision cut lung slices from human IPF explants, 3 days, Col1a1 expression. In kind it is cell-based. Conditions: human IPF PCLS, 3G9 ≥400 ng/mL, compound 5 179 nM, ALK5 inhibitor 1 μM, FIG. 6C. The source says:
Explanted lung tissue was obtained from human IPF subjects and inflated with agarose as described in the preceding examples. Biopsy cores were obtained from the agarose-inflated lung tissue. The biopsy cores were subjected to precision slicing to obtain several hundred μm thick. Individual slices were distributed in a multiwell culture plate and cultured for […] under control (DMSO) and test compound conditions. The viability of the slices over the course of culturing was confirmed by WST-1 assay of mitochondrial activity.

Assay [6] has as its system lung Col1a1 expression. The assay is described as follows: Precision cut lung slices of mice under chronic bleomycin exposure, Col1a1 expression (Example B9). In kind it is cell-based, Mice (C57BL/6). Conditions: chronic bleomycin PCLS, 7 days culture, normalized to DMSO; FIG. 5B. The method, then:
as §1, with “after” for “following”
During the culture period, slices in the control group were treated with DMSO and slices in the test group were treated with a DMSO solution of one of: the selective antibody αvβ6 inhibitor 3G9; the αvβ1-selective small molecule inhibitor; a combination of the selective antibody αvβ6 inhibitor 3G9 and the αvβ1-selective small molecule inhibitor; compound 5; and the small molecule ALK5 inhibitor. The selective αvβ1 and αvβ6 integrin inhibitors were analyzed at ≥their respective IC90 concentrations for inhibition of TGF-beta activation. […]

Sequence of recombinant human integrin αvβ6 (P06756 31-992 limits assumed): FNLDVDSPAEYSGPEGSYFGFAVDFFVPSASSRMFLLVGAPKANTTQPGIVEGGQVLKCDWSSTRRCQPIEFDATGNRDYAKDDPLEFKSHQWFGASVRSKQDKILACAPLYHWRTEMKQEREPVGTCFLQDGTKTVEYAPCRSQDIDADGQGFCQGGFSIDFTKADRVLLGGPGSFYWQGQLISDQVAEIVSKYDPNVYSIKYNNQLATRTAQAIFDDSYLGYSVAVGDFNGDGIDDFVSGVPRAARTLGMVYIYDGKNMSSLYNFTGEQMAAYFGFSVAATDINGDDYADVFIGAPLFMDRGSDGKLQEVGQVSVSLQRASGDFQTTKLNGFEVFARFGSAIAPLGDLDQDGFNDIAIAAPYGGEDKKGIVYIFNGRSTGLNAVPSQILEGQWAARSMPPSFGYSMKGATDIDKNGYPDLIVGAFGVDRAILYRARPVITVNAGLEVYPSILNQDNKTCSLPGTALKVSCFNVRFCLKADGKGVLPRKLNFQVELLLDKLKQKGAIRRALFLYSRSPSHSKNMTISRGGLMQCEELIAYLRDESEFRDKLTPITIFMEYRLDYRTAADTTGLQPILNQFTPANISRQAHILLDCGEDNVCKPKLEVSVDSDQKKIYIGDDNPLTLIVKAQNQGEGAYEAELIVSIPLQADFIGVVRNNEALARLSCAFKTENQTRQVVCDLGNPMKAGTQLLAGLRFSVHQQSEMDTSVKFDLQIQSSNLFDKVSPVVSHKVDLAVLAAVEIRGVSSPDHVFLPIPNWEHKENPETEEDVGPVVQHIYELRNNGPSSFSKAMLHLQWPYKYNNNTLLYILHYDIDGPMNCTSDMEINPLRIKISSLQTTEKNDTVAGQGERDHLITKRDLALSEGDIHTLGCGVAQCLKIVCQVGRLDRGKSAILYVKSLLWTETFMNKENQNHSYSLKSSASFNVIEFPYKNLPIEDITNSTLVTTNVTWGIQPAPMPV
Sequence of recombinant human integrin αvβ6 (P18564 22-707 limits assumed): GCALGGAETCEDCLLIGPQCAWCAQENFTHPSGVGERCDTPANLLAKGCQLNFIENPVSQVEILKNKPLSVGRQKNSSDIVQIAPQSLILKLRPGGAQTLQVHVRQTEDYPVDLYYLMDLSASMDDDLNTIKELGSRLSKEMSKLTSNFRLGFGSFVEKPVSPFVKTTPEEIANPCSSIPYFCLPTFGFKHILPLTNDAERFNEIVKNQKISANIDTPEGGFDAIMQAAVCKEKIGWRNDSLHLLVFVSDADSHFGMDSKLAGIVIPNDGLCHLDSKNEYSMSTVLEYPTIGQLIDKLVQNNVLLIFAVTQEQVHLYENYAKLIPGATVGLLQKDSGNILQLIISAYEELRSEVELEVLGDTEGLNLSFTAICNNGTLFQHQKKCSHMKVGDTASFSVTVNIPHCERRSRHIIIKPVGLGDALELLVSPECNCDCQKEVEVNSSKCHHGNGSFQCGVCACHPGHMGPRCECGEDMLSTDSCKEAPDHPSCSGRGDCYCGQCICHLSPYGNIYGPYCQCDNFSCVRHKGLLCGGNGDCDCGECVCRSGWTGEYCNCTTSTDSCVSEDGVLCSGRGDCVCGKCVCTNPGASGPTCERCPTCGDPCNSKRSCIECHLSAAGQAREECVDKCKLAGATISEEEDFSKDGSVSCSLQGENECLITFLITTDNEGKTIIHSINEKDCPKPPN

With `COC(=O)c1ccc2c(c1)NC(=O)/C2=C(\Nc1ccc(N(C)C(=O)CN2CCN(C)CC2)cc1)c1ccccc1` [nintedanib], the “reduced COL1A1 expression” value with COL1A1 expression was “did not significantly reduce”. Besides, in assay [1], the “lung Col1a1 expression” value is listed as “slight increase”. The “lung slice Col1a1 expression” value in the assay on lung Col1a1 expression [2] is listed as “slight increase”.
Take `CC(C)(C)c1cc(Br)cc(C(CC(=O)O)NC(=O)CNC(=O)c2cc(O)cc(NC3=NCC(O)CN3)c2)c1` [second pan-αv small molecule inhibitor, (3S)-N-[3-hydroxy-5-[(1,4,5,6-tetrahydro-5-hydroxy-2-pyrimidinyl)amino]benzoyl]glycyl-3-[3-bromo-5-(1,1-dimethylethyl)phenyl]-3-alanine]: the “Type I Collagen gene Col1a1 expression” value in assay [3] is recorded as “reduced Type I Collagen gene Col1a1 expression”.
As to `CS(=O)(=O)CCN(CCCCc1ccc2c(n1)NCCC2)CC[C@H](Nc1ncnc2ccccc12)C(=O)O` [Compound 27, (S)-4-((2-(methylsulfonyl)ethyl) (4-(5,6,7,8-tetrahydro-1,8-naphthyridin-2-yl)butyl)amino)-2-(quinazolin-4-ylamino) butanoic acid], the IC50 in assay [4] was less than 50 nM.
Same read-out and setting: then `O=C(O)[C@H](CCN(CCO)CCCCc1ccc2c(n1)NCCC2)Nc1ncnc2ccccc12` [Compound 75, (S)-4-((2-hydroxyethyl) (4-(5,6,7,8-tetrahydro-1,8-naphthyridin-2-yl)butyl)amino)-2-(quinazolin-4-ylamino) butanoic acid], with less than 50 nM; and `CO[C@@H](C)CN(CCCCc1ccc2c(n1)NCCC2)CC[C@H](Nc1ncnc2ccccc12)C(=O)O` [Compound 25, (S)-4-(((S)-2-methoxypropyl) (4-(5,6,7,8-tetrahydro-1,8-naphthyridin-2-yl)butyl)amino)-2-(quinazolin-4-ylamino) butanoic acid], with less than 50 nM.
As for `Cn1ncc2c(N[C@@H](CCN(CCCCc3ccc4c(n3)NCCC4)CCOc3ccccc3)C(=O)O)ncnc21` [Compound 82, (S)-2-((1-methyl-1H-pyrazolo[3,4-d]pyrimidin-4-yl)amino)-4-((2-phenoxyethyl) (4-(5,6,7,8-tetrahydro-1,8-naphthyridin-2-yl)butyl)amino) butanoic acid], the IC50 in assay [4] was less than 50 nM.
In the case of `COC[C@@H](F)CN(CCCCc1ccc2c(n1)NCCC2)CC[C@H](Nc1cc(-c2ccccc2)ncn1)C(=O)O` [Compound 128, (S)-4-(((S)-2-fluoro-3-methoxypropyl) (4-(5,6,7,8-tetrahydro-1,8-naphthyridin-2-yl)butyl)amino)-2-((6-phenylpyrimidin-4-yl)amino) butanoic acid], in assay [4], the IC50 was greater than 1000 nM.
`Cc1ccc(=O)n(-c2ccccc2)c1` [pirfenidone]: the “reduced COL1A1 expression” value in the assay on COL1A1 expression is “did not significantly reduce”. The “lung Col1a1 expression” value in assay [1] is on record as “slight increase”. Besides, the “lung slice Col1a1 expression” value in the assay on lung Col1a1 expression [2] was “slight increase”.
For `Cc1cccc(-c2n[nH]cc2-c2ccc(F)c(-c3cnn(CCO)c3)c2)n1` [small molecule ALK5 inhibitor, 4-[2-Fluoro-5-[3-(6-methyl-2-pyridinyl)-1H-pyrazol-4-yl]phenyl]-1H-pyrazole-1-ethanol, reference compound], the “lung Col1a1 expression” value in the assay on lung Col1a1 expression [5] is on record as “substantial, statistically significant”; with lung Col1a1 expression [6] it was “greatest decrease”. For the same compound, in assay [3], the “Type I Collagen gene Col1a1 expression” value is “greatest decrease”. In addition, in the assay on lung Col1a1 expression [2], the “lung slice Col1a1 expression” value is “substantial, statistically significant (p<0.0001 vs vehicle) decrease”.
Turning to `COCCN(CCCCc1ccc2c(n1)NCCC2)CC[C@H](Nc1ccnc2ccccc12)C(=O)O` [Compound 36, (S)-4-((2-methoxyethyl) (4-(5,6,7,8-tetrahydro-1,8-naphthyridin-2-yl)butyl)amino)-2-(quinolin-4-ylamino) butanoic acid], in assay [4], the IC50 is greater than 1000 nM.
Consider `CO[C@H](C)CN(CCCCc1ccc2c(n1)NCCC2)CC[C@H](Nc1ncncc1-c1ccccc1)C(=O)O` [Compound 81, (S)-4-(((R)-2-methoxypropyl) (4-(5,6,7,8-tetrahydro-1,8-naphthyridin-2-yl)butyl)amino)-2-((5-phenylpyrimidin-4-yl)amino) butanoic acid], for which, in assay [4], the IC50 was less than 50 nM.
Same read-out and setting: then `CO[C@H](C)CN(CCCCc1ccc2c(n1)NCCC2)CC[C@H](Nc1ncc(C#N)cn1)C(=O)O` [Compound 68, (S)-2-((5-cyanopyrimidin-2-yl)amino)-4-(((R)-2-methoxypropyl) (4-(5,6,7,8-tetrahydro-1,8-naphthyridin-2-yl)butyl)amino) butanoic acid], with less than 50 nM.
